Data from patent publication US20260265265A1, “NOVEL BENZIMIDAZOLONE DERIVATIVE COMPOUND AS AUTOTAXIN INHIBITOR” (LG CHEM, LTD., priority 2023, published 2026).

Target: T1, Recombinant Human ENPP-2/Autotaxin (Homo sapiens, UniProt Q13822)
T1 construct: purchased R&D systems 5255-EN
Test: LysoPLD activity measurement (autotaxin enzyme inhibition, choline release, TOOS reagent)
Format: biochemical
Details: LysoPLD inhibitory activity; substrate 14:0 LysoPC; absorbance at 555 nm
How it was run: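 Autotaxin lysoPLD activity was read as choline released from 14:0 LysoPC, detected by TOOS reagent absorbance. Compound was preincubated 30 min, then substrate diluted to 300 μM was added and the reaction ran 90 minutes at 37° C. Controls contained 1% DMSO.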

SMILES	IC50
O=C(O)c1cccc(Cn2c(=O)n(-c3ccc(NS(=O)(=O)CC(F)(F)F)cc3)c3cc(Cl)ccc32)c1 [Example 26, 3-((5-chloro-2-oxo-3-(4-((2,2,2-trifluoroethyl)sulfonamido)phenyl)-2,3-dihydro-1H-benzo[d]imidazol-1-yl)methyl)benzoic acid]	100 to 1000 nM
O=C(O)c1cccc(C2(n3c(=O)n(-c4ccc(C5CCCCC5)cc4)c4cc(Cl)ccc43)CC2)c1 [Example 98, 3-(1-(5-chloro-3-(4-cyclohexylphenyl)-2-oxo-2,3-dihydro-1H-benzo[d]imidazol-1-yl)cyclopropyl)benzoic acid]	100 to 1000 nM
CN(C)c1ccc(-n2c(=O)n(Cc3cccc(C(=O)O)c3)c3ncc(Cl)cc32)cc1 [Example 161, 3-((6-chloro-1-(4-(dimethylamino)phenyl)-2-oxo-1,2-dihydro-3H-imidazo[4,5-b]pyridin-3-yl)methyl)benzoic acid]	100 to 1000 nM
O=C(O)c1cccc(Cn2c(=O)n(-c3ccc(N4CCC(F)(F)CC4)cc3)c3cc(Cl)ccc32)c1 [Example 94, 3-((5-chloro-3-(4-(4,4-difluoropiperidin-1-yl)phenyl)-2-oxo-2,3-dihydro-1H-benzo[d]imidazol-1-yl)methyl)benzoic acid]	10 to 100 nM
CCC(=O)N1CCC(c2ccc(-n3c(=O)n(Cc4cccc(C(=O)O)c4F)c4ccc(Cl)c(F)c43)cc2)CC1 [Example 151, 3-((5-chloro-4-fluoro-2-oxo-3-(4-(1-propionylpiperidin-4-yl)phenyl)-2,3-dihydro-1H-benzo[d]imidazol-1-yl)methyl)-2-fluorobenzoic acid]	10 to 100 nM
O=C(O)c1cccc(Cn2c(=O)n(-c3ccc(N4CCC(F)(F)C4)cc3)c3c(F)c(Cl)ccc32)c1F [Example 119, 3-((5-chloro-3-(4-(3,3-difluoropyrrolidin-1-yl)phenyl)-4-fluoro-2-oxo-2,3-dihydro-1H-benzo[d]imidazol-1-yl)methyl)-2-fluorobenzoic acid]	10 to 100 nM
CCCc1ccc(-n2c(=O)n(Cc3cccc(C(=O)O)c3)c3ccc(Cl)cc32)cc1 [Example 2, 3-((5-chloro-2-oxo-3-(4-propylphenyl)-2,3-dihydro-1H-benzo[d]imidazol-1-yl)methyl)benzoic acid]	100 to 1000 nM
O=C(O)c1cccc(Cn2c(=O)n(-c3ccc(C4CCN(C5COC5)CC4)cc3)c3cc(Cl)ccc32)c1 [Example 259, 3-((5-chloro-3-(4-(1-(oxetan-3-yl)piperidin-4-yl)phenyl)-2-oxo-2,3-dihydro-1H-benzo[d]imidazol-1-yl)methyl)benzoic acid]	100 to 1000 nM
O=C(O)c1cccc(Cn2c(=O)n(-c3ccccc3)c3cc(Cl)ccc32)c1 [Example 1, 3-((5-chloro-2-oxo-3-phenyl-2,3-dihydro-1H-benzo[d]imidazol-1-yl)methyl)benzoic acid]	100 to 1000 nM
O=C(O)c1cccc(Cn2c(=O)n(-c3ccc(F)cc3)c3cc(Cl)ccc32)c1 [Example 3, 3-((5-chloro-3-(4-fluorophenyl)-2-oxo-2,3-dihydro-1H-benzo[d]imidazol-1-yl)methyl)benzoic acid]	100 to 1000 nM
CN(C)c1ccc(-n2c(=O)n(Cc3cc(F)cc(C(=O)O)c3)c3c(F)cc(Cl)cc32)cc1 [Example 65, 3-((5-chloro-3-(4-(dimethylamino)phenyl)-7-fluoro-2-oxo-2,3-dihydro-1H-benzo[d]imidazol-1-yl)methyl)-5-fluorobenzoic acid]	10 to 100 nM
O=C(O)c1cccc(C2(n3c(=O)n(-c4ccc(C5CCOCC5)cc4)c4cc(Cl)ccc43)CCC2)c1 [Example 155, 3-(1-(5-chloro-2-oxo-3-(4-(tetrahydro-2H-pyran-4-yl)phenyl)-2,3-dihydro-1H-benzo[d]imidazol-1-yl)cyclobutyl)benzoic acid]	10 to 100 nM
CN1CCN(c2ccc(-n3c(=O)n(Cc4cccc(C(=O)O)c4)c4ccc(Cl)cc43)cn2)CC1 [Example 81, 3-((5-chloro-3-(6-(4-methylpiperazin-1-yl)pyridin-3-yl)-2-oxo-2,3-dihydro-1H-benzo[d]imidazol-1-yl)methyl)benzoic acid]	100 to 1000 nM
O=C(O)c1cccc(Cn2c(=O)n(-c3ccc(C4CCN(C(=O)C5CC5)CC4)cc3)c3cc(Cl)ccc32)c1 [Example 100, 3-((5-chloro-3-(4-(1-(cyclopropanecarbonyl)piperidin-4-yl)phenyl)-2-oxo-2,3-dihydro-1H-benzo[d]imidazol-1-yl)methyl)benzoic acid]	10 to 100 nM
O=C(O)c1cccc(C2(n3c(=O)n(-c4ccc(C5CCOCC5)cc4)c4cc(Cl)ccc43)CC2)c1F [Example 106, 3-(1-(5-chloro-2-oxo-3-(4-(tetrahydro-2H-pyran-4-yl)phenyl)-2,3-dihydro-1H-benzo[d]imidazol-1-yl)cyclopropyl)-2-fluorobenzoic acid]	< 10 nM
O=C(O)c1cccc(C2(n3c(=O)n(-c4ccc(N5CCOCC5)cc4)c4cc(OC(F)(F)F)ccc43)CC2)c1 [Example 209, 3-(1-(3-(4-morpholinophenyl)-2-oxo-5-(trifluoromethoxy)-2,3-dihydro-1H-benzo[d]imidazol-1-yl)cyclopropyl)benzoic acid]	10 to 100 nM
O=C(O)c1cccc(C2(n3c(=O)n(-c4ccc(N5CCOCC5)cc4)c4cc(Cl)ccc43)CC2)c1 [Example 147, 3-(1-(5-chloro-3-(4-morpholinophenyl)-2-oxo-2,3-dihydro-1H-benzo[d]imidazol-1-yl)cyclopropyl)benzoic acid]	< 10 nM
CC(C)(c1cccc(C(=O)O)c1)n1c(=O)n(-c2ccc(C3CCOCC3)cc2)c2cc(Cl)ccc21 [Example 158, 3-(2-(5-chloro-2-oxo-3-(4-(tetrahydro-2H-pyran-4-yl)phenyl)-2,3-dihydro-1H-benzo[d]imidazol-1-yl)propan-2-yl)benzoic acid]	10 to 100 nM

Continued, values first:

IC50	SMILES
< 10 nM	O=C(O)c1cccc(C2(n3c(=O)n(-c4ccc(C5(O)CCC5)cc4)c4cc(Cl)ccc43)CC2)c1 [Example 256, 3-(1-(5-chloro-3-(4-(1-hydroxycyclobutyl)phenyl)-2-oxo-2,3-dihydro-1H-benzo[d]imidazol-1-yl)cyclopropyl)benzoic acid]
< 10 nM	O=C(O)c1cccc(C2(n3c(=O)n(-c4ccc(N5CC6(CCOCC6)C5)cc4)c4cc(Cl)ccc43)CC2)c1 [Example 148, 3-(1-(3-(4-(7-oxa-2-azaspiro[3.5]nonane-2-yl)phenyl)-5-chloro-2-oxo-2,3-dihydro-1H-benzo[d]imidazol-1-yl)cyclopropyl)benzoic acid]
< 10 nM	O=C(O)c1cccc(C2(n3c(=O)n(-c4ccc(C(=O)N5CC6(COC6)C5)cc4)c4cc(Cl)ccc43)CC2)c1 [Example 137, 3-(1-(3-(4-(2-oxa-6-azaspiro[3.3]heptane-6-carbonyl)phenyl)-5-chloro-2-oxo-2,3-dihydro-1H-benzo[d]imidazol-1-yl)cyclopropyl)benzoic acid]
< 10 nM	O=C(O)c1cccc(Cn2c(=O)n(-c3ccc(C(=O)N4CCCCC4)cc3)c3cc(Cl)ccc32)c1 [Example 43, 3-((5-chloro-2-oxo-3-(4-(piperidine-1-carbonyl)phenyl)-2,3-dihydro-1H-benzo[d]imidazol-1-yl)methyl)benzoic acid]
< 10 nM	COC1CCN(C(=O)c2ccc(-n3c(=O)n(Cc4cccc(C(=O)O)c4)c4ccc(Cl)cc43)cc2)CC1 [Example 62, 3-((5-chloro-3-(4-(4-methoxypiperidine-1-carbonyl)phenyl)-2-oxo-2,3-dihydro-1H-benzo[d]imidazol-1-yl)methyl)benzoic acid]
< 10 nM	CN(C)C(=O)Cc1ccc(-n2c(=O)n(C3(c4cccc(C(=O)O)c4)CC3)c3ccc(Cl)cc32)cc1 [Example 139, 3-(1-(5-chloro-3-(4-(2-(dimethylamino)-2-oxoethyl)phenyl)-2-oxo-2,3-dihydro-1H-benzo[d]imidazol-1-yl)cyclopropyl)benzoic acid]
< 10 nM	CN1CCN(C(=O)c2ccc(-n3c(=O)n(Cc4cccc(C(=O)O)c4)c4ccc(Cl)cc43)cc2)CC1 [Example 60, 3-((5-chloro-3-(4-(4-methylpiperazine-1-carbonyl)phenyl)-2-oxo-2,3-dihydro-1H-benzo[d]imidazol-1-yl)methyl)benzoic acid]
< 10 nM	O=C(O)c1cccc(C2(n3c(=O)n(-c4ccc(C5CCOC5)cc4)c4cc(Cl)ccc43)CC2)c1F (stereo not drawn) [Example 250, 3-(1-(5-chloro-2-oxo-3-(4-(tetrahydrofuran-3-yl)phenyl)-2,3-dihydro-1H-benzo[d]imidazol-1-yl)cyclopropyl)-2-fluorobenzoic acid]
< 10 nM	CN1Cc2cc(-n3c(=O)n(C4(c5cccc(C(=O)O)c5)CC4)c4ccc(Cl)cc43)ccc2C1=O [Example 245, 3-(1-(5-chloro-3-(2-methyl-1-oxoisoindolin-5-yl)-2-oxo-2,3-dihydro-1H-benzo[d]imidazol-1-yl)cyclopropyl)benzoic acid]
< 10 nM	CC1(c2ccc(-n3c(=O)n(C4(c5cccc(C(=O)O)c5)CC4)c4ccc(Cl)cc43)cc2)COC1 [Example 247, 3-(1-(5-chloro-3-(4-(3-methyloxetan-3-yl)phenyl)-2-oxo-2,3-dihydro-1H-benzo[d]imidazol-1-yl)cyclopropyl)benzoic acid]
< 10 nM	CN(C)C(=O)c1ccc(-n2c(=O)n(C3(c4cc(F)cc(C(=O)O)c4)CC3)c3ncc(Cl)cc32)cc1 [Example 272, 3-(1-(6-chloro-1-(4-(dimethylcarbamoyl)phenyl)-2-oxo-1,2-dihydro-3H-imidazo[4,5-b]pyridin-3-yl)cyclopropyl)-5-fluorobenzoic acid]
< 10 nM	C[C@H]1COCCN1C(=O)c1ccc(-n2c(=O)n(C3(c4cccc(C(=O)O)c4F)CC3)c3ccc(Cl)cc32)cc1 [Example 136, (S)-3-(1-(5-chloro-3-(4-(3-methylmorpholine-4-carbonyl)phenyl)-2-oxo-2,3-dihydro-1H-benzo[d]imidazol-1-yl)cyclopropyl)-2-fluorobenzoic acid]
